Paper PMC9709406 (Frontiers in Pharmacology, 2022)
Several values for one entry are separate records, joined by “and”; a condition that tells them apart may be missing. Equal entries are not always repeated. Where two headings read alike, the source gives them in different places.

How the values were obtained:
[1] = test system: KYSE450 cell-derived xenograft; assay: In vivo cell-derived xenograft (CDX) mouse model; design: species or system nu/nu nude mice
Experimental: Mice were housed under specific pathogen-free conditions. All animal experiments were approved by the Bioethics Committee of Zhengzhou University and followed the guidelines set by the Institutional Animal Care and Use Committee (CUHCI2019002, CUHCI2021001, and CUHCI2021005). To generate the cell-derived xenograft (CDX) mouse model, nu/nu nude mice (Vital River Labs., Beijing, China) were subcutaneously injected with 5 × 10^6 cells (KYSE450). […] Tumor volume was calculated as follows: length × width × height × 0.5. Tumor size and mice weight were measured every 2–3 days. Compounds were administered for 15 days. The tumors were extracted for weighting, immunohistochemistry and immunofluorescence studies.
Frozen sections were washed three times with PBS and incubated overnight at 4°C with Ki-67 antibody. The next day, sections were washed three times and incubated with secondary antibody in PBS. After several washes, slides were counterstained with DAPI (Solarbio). The sections were mounted on microscope and imaged using fluorescent microscopy (Nikon, Tokyo, Japan). Image-Pro Plus 6.0 was used to analyze the fluorescence intensity.
Histological sections were dewaxed, antigens were repaired and sealed with serum in sequence. Next, histological sections were incubated overnight with diluted primary antibodies (1 : 500 dilution), and the control specimens were treated with PBS. The sections were washed 3 times with PBS. Secondary antibody was added and the system was then placed at 37 °C for half an hour. The systems were washed 3 times with PBS. Color developing agent was added. After washing with water, the system was soaked in hematoxylin for 0.5 min for dyeing. The re-dyed slides were washed with water, and then dehydrated. Neutral gums were dropped on the side of the tissue. The slices were then covered with cover glass, sealed and placed in a ventilator for drying. Immunohistochemical staining analysis was then carried out with Image-Pro Plus 6.0.

EGFR = target: T1, EGFR (Homo sapiens, UniProt P00533); assay: EGFR kinase assay (ELISA); type: biochemical; settings: 25°C
T1 construct: purchased Active MOTIF
T1 sequence (P00533 25-1210): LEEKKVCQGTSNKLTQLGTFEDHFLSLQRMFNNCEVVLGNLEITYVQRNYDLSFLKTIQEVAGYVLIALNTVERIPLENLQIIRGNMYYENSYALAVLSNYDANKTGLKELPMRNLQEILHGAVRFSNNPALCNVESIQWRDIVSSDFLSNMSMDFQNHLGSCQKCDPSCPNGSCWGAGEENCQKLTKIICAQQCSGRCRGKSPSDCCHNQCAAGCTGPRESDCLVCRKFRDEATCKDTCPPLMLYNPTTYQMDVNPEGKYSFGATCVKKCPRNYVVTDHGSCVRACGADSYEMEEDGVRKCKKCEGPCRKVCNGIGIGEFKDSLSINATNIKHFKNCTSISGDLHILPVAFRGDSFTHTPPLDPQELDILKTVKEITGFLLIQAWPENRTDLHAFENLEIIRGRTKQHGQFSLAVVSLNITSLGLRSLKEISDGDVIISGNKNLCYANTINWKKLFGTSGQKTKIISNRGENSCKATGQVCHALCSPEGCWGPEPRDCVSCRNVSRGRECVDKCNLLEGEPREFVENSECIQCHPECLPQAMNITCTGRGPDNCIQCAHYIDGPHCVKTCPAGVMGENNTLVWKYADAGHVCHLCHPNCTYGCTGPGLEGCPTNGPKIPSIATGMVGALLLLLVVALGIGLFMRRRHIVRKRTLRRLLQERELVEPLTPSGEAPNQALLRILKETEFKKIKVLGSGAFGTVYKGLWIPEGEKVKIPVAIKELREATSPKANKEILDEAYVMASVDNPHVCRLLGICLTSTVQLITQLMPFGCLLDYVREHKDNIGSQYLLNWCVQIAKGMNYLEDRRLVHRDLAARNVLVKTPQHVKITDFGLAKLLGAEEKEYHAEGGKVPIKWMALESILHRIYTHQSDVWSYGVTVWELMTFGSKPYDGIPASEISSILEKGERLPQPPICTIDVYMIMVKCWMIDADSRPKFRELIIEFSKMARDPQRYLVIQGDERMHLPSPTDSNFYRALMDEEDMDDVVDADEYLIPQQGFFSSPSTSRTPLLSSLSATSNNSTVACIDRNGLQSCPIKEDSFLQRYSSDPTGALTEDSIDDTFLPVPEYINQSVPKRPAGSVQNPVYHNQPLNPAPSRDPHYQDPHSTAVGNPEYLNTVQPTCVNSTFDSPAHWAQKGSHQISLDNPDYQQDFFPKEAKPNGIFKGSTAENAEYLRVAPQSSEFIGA
Experimental: Kinase inhibitory activities of the compounds were evaluated using the Protein Tyrosine Kinase Assay Kit (SignalChem (British Columbia, Canada)). The kinase enzyme of EGFR was purchased from Active MOTIF. The ELISA experiments were carried out according the instructions of the kit. Active kinases were incubated with indicated compounds in 1 × reaction buffer containing 20 μM substrate at 25°C for 1 h and 2 h, respectively. The absorbance was read with a multimode plate reader (PerkinElmer, United States) at 450 nm.

H1975 cells = assay: MTT assay for cell proliferation and cytotoxicity, H1975; type: cell-based, human; settings: Homo sapiens
Source text: (§1) The human cancer cells (H1650, H1975, KYSE70, KYSE410 and KYSE450) were purchased from the Type Culture Collection of the Chinese Academy of Sciences (Shanghai, China). The human immortalized normal esophageal epithelial cell line SHEE was donated by Dr. Enmin Li from the Laboratory of Tumor Pathology (Shantou University Medical College, Shantou, Guangdong, China). Drug-resistant cells (H1650TR, H1975OR, KYSE70TR, KYSE410TR and KYSE450TR) were induced by China-US (Henan) Hormel Cancer Institute. The cellswere cultured in RPMI-1640 complete growth medium containing 100 U/mL penicillin-streptomycin and 10% FBS. Based on the above medium formula, 100 nm/L paclitaxel was added in taxol-resistant cells, 100 nm/L gefitinib was added in gefitinib-resistant cells. The cells were incubated at 37 °C in an atmosphere containing 5% of CO2. The compounds were dissolved in DMSO to make a 50 mM stock solution and were diluted to the concentration of working solutions with complete growth medium before administration.
(§2) Cells were seeded in 96-well plates with 2,200–2,500 cells/well in100 μL. One day after seeding, test compounds with the concentration between 0 and 50 μM were added with 0.1% DMSO as control. Five multiple wells for each concentration. […] The absorbance at 490 nm was measured using a microplate reader (Thermo).

SHEE cells = assay: MTT assay, normal esophageal epithelial cell line SHEE; type: cell-based; settings: Homo sapiens, 48 h, n = 5
Source text: as §1
(§3) Cells were seeded in 96-well plates with 2,200–2,500 cells/well in100 μL. One day after seeding, test compounds with the concentration between 0 and 50 μM were added with 0.1% DMSO as control. Five multiple wells for each concentration. After 48 h, MTT was added and incubated in the plate for 1–4 h in the incubator. The absorbance at 490 nm was measured using a microplate reader (Thermo).

H1650 cells = assay: MTT assay for cell proliferation and cytotoxicity, H1650; type: cell-based; settings: Homo sapiens, NCI-H1650, 48 h, H1650, n = 5
Source text: as §1, §3

KYSE70 cells = assay: MTT assay, KYSE70; type: cell-based, human; settings: for IC50: Homo sapiens, KYSE-70, MTT, 48 h, KYSE70, n = 5
Source text: as §1, §3

KYSE450 cells = assay: MTT assay, KYSE450; type: cell-based, human; settings: for IC50: Homo sapiens, KYSE-450, MTT, 48 h, KYSE450, n = 5, read-out: IC50 48 h KYSE450; for absorbance 490 nm, single well / mean absorbance 490 nm (row G) / mean absorbance 490 nm minus background (row H): KYSE450
Source text: as §1, §3

KYSE410 cells = assay: MTT assay, KYSE410; type: cell-based, human; settings: for IC50: Homo sapiens, KYSE-410, MTT, 48 h, KYSE410, n = 5, read-out: IC50 48 h KYSE410
Source text: as §1, §3

H1975OR cells = assay: MTT assay, osimertinib-resistant H1975OR; type: cell-based; settings: Homo sapiens, H1975OR, resistance-inducing drug (osimertinib)
Source text: as §1, §2

[2] = nude mice, 50 mg/kg i.p. every day, 15 days, vs control group and icotinib group
[3] = incubation 1 h, read-out: IC50 EGFR 1 h
[4] = incubation 2 h, read-out: IC50 EGFR 2 h
[5] = NCI-H1975, 48 h, MTT, 48 h, H1975, n = 5, read-out: IC50 48 h H1975
[6] = concentration 12.5 (unit not given)
[7] = concentration 25 (unit not given)
[8] = concentration 50 (unit not given)
[9] = concentration 100 (unit not given)

Compound | melting point [°C] | IC50 (EGFR; [3]) [µM] | IC50 (EGFR; [4]) [µM] | IC50 (H1975 cells; [5]) [µM] | IC50 (SHEE cells) [µM] | IC50 (H1650 cells) [µM] | IC50 (KYSE70 cells) [µM] | blank-corrected absorbance 490 nm relative to control (fraction) (KYSE70 cells; KYSE70, concentration 12.5) | inhibition (1 minus fraction of control) (KYSE70 cells; KYSE70, concentration 12.5) | blank-corrected absorbance 490 nm relative to control (fraction) (KYSE70 cells; KYSE70, concentration 25) | inhibition (1 minus fraction of control) (KYSE70 cells; KYSE70, concentration 25) | blank-corrected absorbance 490 nm relative to control (fraction) (KYSE70 cells; KYSE70, concentration 50) | inhibition (1 minus fraction of control) (KYSE70 cells; KYSE70, concentration 50) | blank-corrected absorbance 490 nm relative to control (fraction) (KYSE70 cells; KYSE70, concentration 100) | inhibition (1 minus fraction of control) (KYSE70 cells; KYSE70, concentration 100) | IC50 (KYSE450 cells) [µM] | IC50 (KYSE410 cells) [µM] | blank-corrected absorbance 490 nm relative to control (fraction) (KYSE410 cells; KYSE410, concentration 12.5) | inhibition (1 minus fraction of control) (KYSE410 cells; KYSE410, concentration 12.5) | blank-corrected absorbance 490 nm relative to control (fraction) (KYSE410 cells; KYSE410, concentration 25) | also measured
C#Cc1cccc(Nc2ncnc3cc(OCCOC)c(OCCOC)cc23)c1 [erlotinib, reference compound] | – | – | – | – | – | – | – | – | – | – | – | – | – | – | – | – | – | – | – | – | expression of proliferation marker Ki-67 in tumor ([1]; 50 mg/kg i.p., immunofluorescence): decreased significantly; expression of P-ERK (Tyr202/204) in tumor ([1]; 50 mg/kg i.p., immunohistochemistry): decreased significantly; ESCC tumor volume [1, 2]: markedly reduced; average tumor weight [1, 2]: markedly reduced
COc1ccccc1-n1cc(-c2cccc(Nc3ncnc4cc5c(cc34)OCCOCCOCCO5)c2)nn1 [compound 3d] | 121 to 124 | 5.14 | 26 | 19.4 ± 1.21 | 7.2 ± 0.71 | 10.8 ± 0.89 | 7.35 ± 0.7 | 0.1496 | 0.8504 | 0.05438 | 0.9456 | 0.05391 | 0.9461 | 0.08017 | 0.9198 | 13.5 ± 1.21 | 8.67 ± 0.71 | 0.2787 | 0.7213 | -0.00175 | absorbance 490 nm, single well (KYSE450 cells; [6]): 0.4487 and 0.4214 and 0.4264 and 0.4518; mean absorbance 490 nm (row G) (KYSE450 cells; [6]): 0.4371; mean absorbance 490 nm minus background (row H) (KYSE450 cells; [6]): 0.3824; absorbance 490 nm, single well (KYSE450 cells; [7]): 0.0614 and 0.062 and 0.0618; mean absorbance 490 nm (row G) (KYSE450 cells; [7]): 0.06165; mean absorbance 490 nm minus background (row H) (KYSE450 cells; [7]): 0.00697; absorbance 490 nm, single well (KYSE450 cells; [8]): 0.0565 and 0.0602 and 0.0592 and 0.0604; mean absorbance 490 nm (row G) (KYSE450 cells; [8]): 0.05908; mean absorbance 490 nm minus background (row H) (KYSE450 cells; [8]): 0.004395; absorbance 490 nm, single well (KYSE450 cells; [9]): 0.0606 and 0.0657 and 0.0613 and 0.0623; mean absorbance 490 nm (row G) (KYSE450 cells; [9]): 0.06248; mean absorbance 490 nm minus background (row H) (KYSE450 cells; [9]): 0.007795; inhibition (1 minus fraction of control) (KYSE410 cells; KYSE410, concentration 25): 1.002; blank-corrected absorbance 490 nm relative to control (fraction) (KYSE410 cells; KYSE410, concentration 50): 0.004317; inhibition (1 minus fraction of control) (KYSE410 cells; KYSE410, concentration 50): 0.9957; blank-corrected absorbance 490 nm relative to control (fraction) (KYSE410 cells; KYSE410, concentration 100): 0.02345; inhibition (1 minus fraction of control) (KYSE410 cells; KYSE410, concentration 100): 0.9766
C=CC(=O)Nc1cc(Nc2nccc(-c3cn(C)c4ccccc34)n2)c(OC)cc1N(C)CCN(C)C [osimertinib, reference compound] | – | – | – | – | – | – | – | – | – | – | – | – | – | – | – | – | – | – | – | – | IC50 (H1975OR cells; 24 h, read-out: 24 h IC50): 13.8 ± 2.98 µM; IC50 (H1975OR cells; 48 h, read-out: 48 h IC50): 5.97 ± 0.289 µM; IC50 (H1975 cells; NCI-H1975, 24 h, H1975, MTT, 24 h, resistance-inducing drug (osimertinib), read-out: 24 h IC50): 0.585 ± 0.0261 µM; IC50 (H1975 cells; NCI-H1975, 48 h, H1975, MTT, 48 h, resistance-inducing drug (osimertinib), read-out: 48 h IC50): 0.102 ± 0.0121 µM
Clc1ccc(-n2cc(-c3cccc(Nc4ncnc5cc6c(cc45)OCCOCCOCCO6)c3)nn2)cc1 [compound 3b] | 132 to 135 | 3.26 | 71.7 | > 50 | 6.03 ± 0.48 | 7.81 ± 0.46 | 8.85 ± 0.67 | 0.2939 | 0.7061 | 0.2786 | 0.7214 | 0.1882 | 0.8118 | 0.1691 | 0.8309 | 11.6 ± 1.02 | 10.7 ± 0.86 | 0.4136 | 0.5864 | 0.4139 | inhibition (1 minus fraction of control) (KYSE410 cells; KYSE410, concentration 25): 0.5861; blank-corrected absorbance 490 nm relative to control (fraction) (KYSE410 cells; KYSE410, concentration 50): 0.3164; inhibition (1 minus fraction of control) (KYSE410 cells; KYSE410, concentration 50): 0.6836; blank-corrected absorbance 490 nm relative to control (fraction) (KYSE410 cells; KYSE410, concentration 100): 0.1744; inhibition (1 minus fraction of control) (KYSE410 cells; KYSE410, concentration 100): 0.8256
